Experimental data reported in US10130693B2, “Peptides, combination of peptides and scaffolds for use in immunotherapeutic treatment of various cancers” (Immatics Biotechnologies GmbH, priority 2015, dated 2018).

test system: HLA-A*24; assay: MHC binding assay, UV-ligand exchange with beta2m ELISA (exchange yield), HLA-A*24; design: species or system human; details: binding to HLA-A*24, UV-ligand exchange
Source text: Candidate peptides for T cell based therapies according to the present invention were further tested for their MHC binding capacity (affinity). The individual peptide-MHC complexes were produced by UV-ligand exchange, where a UV-sensitive peptide is cleaved upon UV-irradiation, and exchanged with the peptide of interest as analyzed. Only peptide candidates that can effectively bind and stabilize the peptide-receptive MHC molecules prevent dissociation of the MHC complexes. To determine the yield of the exchange reaction, an ELISA was performed based on the detection of the light chain (β2m) of stabilized MHC complexes. The assay was performed as generally described in Rodenko et al. (Rodenko et al., 2006).
96 well MAXISorp plates (NUNC) were coated over night with 2 ug/ml streptavidin in PBS at room temperature, washed 4× and blocked for 1 h at 37° C. in 2% BSA containing blocking buffer. […] Peptide-MHC monomers of the UV-exchange reaction were diluted 100 fold in blocking buffer. Samples were incubated for 1 h at 37° C., washed four times, incubated with 2 ug/ml HRP conjugated anti-β2m for 1h at 37° C., washed again and detected with TMB solution that is stopped with […]. Absorption was measured at 450 nm. Candidate peptides that show a high exchange yield (preferably higher than 50%, most preferred higher than 75%) are generally preferred for a generation and production of antibodies or fragments thereof, and/or T cell receptors or fragments thereof, as they show sufficient avidity to the MHC molecules and prevent dissociation of the MHC complexes.

| Substance | Peptide exchange (MHC class I binding score, peptide exchange yield) |
| --- | --- |
| 259 (YFIKSPPSQLF; listed as Homo sapiens) [compound 259] | ++ (20%-49% = ++) |
| 217 (IYISNSIYF; listed as Homo sapiens) [compound 217] | ++++ (>=75% = ++++) |
| 352 (QYGGDLTNTF; listed as Homo sapiens) [compound 352] | +++ (50%-75% = +++) |
| 226 (MYLKLVQLF; listed as Homo sapiens) [compound 226] | ++ (20%-49% = ++) |
| 121 (RYGLPAAWSTF; listed as Homo sapiens) [compound 121] | +++ (50%-75% = +++) |
| 154 (VYGVPTPHF; listed as Homo sapiens) [compound 154] | ++++ (>=75% = ++++) |
| 100 (VYIESRIGTSTSF; listed as Homo sapiens) [compound 100] | +++ (50%-75% = +++) |
| 276 (QYLDVLHAL; listed as Homo sapiens) [compound 276] | ++++ (>=75% = ++++) |
| 374 (VFLPRVTEL; listed as Homo sapiens) [compound 374] | ++ (20%-49% = ++) |
| 295 (SYLVIHERI; listed as Homo sapiens) [compound 295] | +++ (50%-75% = +++) |
| 299 (KYQYVLNEF; listed as Homo sapiens) [compound 299] | +++ (50%-75% = +++) |
| 235 (VYKDSIYYI; listed as Homo sapiens) [compound 235] | +++ (50%-75% = +++) |
| 342 (NYAFLHRTL; listed as Homo sapiens) [compound 342] | +++ (50%-75% = +++) |
| 281 (NYSPGLVSLIL; listed as Homo sapiens) [compound 281] | +++ (50%-75% = +++) |
| 291 (YYLGSGRETF; listed as Homo sapiens) [compound 291] | +++ (50%-75% = +++) |
| 375 (KYTDYILKI; listed as Homo sapiens) [compound 375] | +++ (50%-75% = +++) |
| 224 (PYFFANQEF; listed as Homo sapiens) [compound 224] | +++ (50%-75% = +++) |
| 214 (KYLMELTLI; listed as Homo sapiens) [compound 214] | +++ (50%-75% = +++) |
| 212 (SYAPPSEDLF; listed as Homo sapiens) [compound 212] | ++ (20%-49% = ++) |
| 204 (EYLSTCSKL; listed as Homo sapiens) [compound 204] | +++ (50%-75% = +++) |
| 312 (SYTSVLSRL; listed as Homo sapiens) [compound 312] | +++ (50%-75% = +++) |
| 347 (VYAEVNSL; listed as Homo sapiens) [compound 347] | +++ (50%-75% = +++) |
| 159 (IYEETRGVL; listed as Homo sapiens) [compound 159] | +++ (50%-75% = +++) |
| 267 (SFLNIEKTEILF; listed as Homo sapiens) [compound 267] | ++ (20%-49% = ++) |
| 200 (VFIHHLPQF; listed as Homo sapiens) [compound 200] | +++ (50%-75% = +++) |

| Substance | Peptide exchange (MHC class I binding score, peptide exchange yield) |
| --- | --- |
| 377 (QYTPHSHQF; listed as Homo sapiens) [compound 377] | +++ (50%-75% = +++) |
| 230 (TYGMVMVTF; listed as Homo sapiens) [compound 230] | +++ (50%-75% = +++) |
| 192 (RYSTFSEIF; listed as Homo sapiens) [compound 192] | +++ (50%-75% = +++) |
| 318 (TYSNSAFQYF; listed as Homo sapiens) [compound 318] | +++ (50%-75% = +++) |
| 178 (NYSSAVQKF; listed as Homo sapiens) [compound 178] | +++ (50%-75% = +++) |
| 341 (SYLTQHQRI; listed as Homo sapiens) [compound 341] | +++ (50%-75% = +++) |
| 221 (KYIGNLDLL; listed as Homo sapiens) [compound 221] | ++++ (>=75% = ++++) |
| 135 (VYEAMVPLF; listed as Homo sapiens) [compound 135] | ++++ (>=75% = ++++) |
| 287 (IYNPNLLTASKF; listed as Homo sapiens) [compound 287] | +++ (50%-75% = +++) |
| 275 (KYGTLDVTF; listed as Homo sapiens) [compound 275] | ++++ (>=75% = ++++) |
| 316 (VYFEGSDFKF; listed as Homo sapiens) [compound 316] | +++ (50%-75% = +++) |
| 231 (AFADVSVKF; listed as Homo sapiens) [compound 231] | ++++ (>=75% = ++++) |
| 282 (NYLVDPVTI; listed as Homo sapiens) [compound 282] | +++ (50%-75% = +++) |
| 297 (TYIDTRTVF; listed as Homo sapiens) [compound 297] | ++++ (>=75% = ++++) |
| 308 (TFDGHGVFF; listed as Homo sapiens) [compound 308] | +++ (50%-75% = +++) |
| 228 (IYQYVADNF; listed as Homo sapiens) [compound 228] | +++ (50%-75% = +++) |
| 215 (SYVASFFLL; listed as Homo sapiens) [compound 215] | ++ (20%-49% = ++) |
| 237 (KYVGQLAVL; listed as Homo sapiens) [compound 237] | +++ (50%-75% = +++) |
| 196 (GYIRGSWQF; listed as Homo sapiens) [compound 196] | ++++ (>=75% = ++++) |
| 279 (VWLPASVLF; listed as Homo sapiens) [compound 279] | +++ (50%-75% = +++) |
| 286 (SYGTILSHI; listed as Homo sapiens) [compound 286] | ++++ (>=75% = ++++) |
| 136 (IYPEWPVVFF; listed as Homo sapiens) [compound 136] | +++ (50%-75% = +++) |
| 368 (KYQNVKHNL; listed as Homo sapiens) [compound 368] | +++ (50%-75% = +++) |
| 319 (KYSDVKNLI; listed as Homo sapiens) [compound 319] | ++++ (>=75% = ++++) |
| 183 (PYLQDVPRI; listed as Homo sapiens) [compound 183] | +++ (50%-75% = +++) |
